Measurements reported in a melting point compilation (Tetko et al.).

Compound | melting point [°C]
COc1cc(OC(C)=O)c2c(=O)c(O[C@@H]3O[C@H](COC(C)=O)[C@H](OC(C)=O)[C@H](OC(C)=O)[C@@H]3O[C@@H]3O[C@H](C)[C@H](OC(C)=O)[C@H](OC(C)=O)[C@@H]3OC(C)=O)c(-c3ccc(OC(C)=O)cc3)oc2c1 | 118 to 120
NC(C(=O)O)C1=CCC=CC1 (stereo not given) | 260
CSc1nsc(SC)c1C(=O)Nc1ccc(Cl)cc1 | 168 to 170
CC12CC3CC(Br)(C1)CC(C(=O)O)(C3)C2 (stereo not given) | 118 to 120
CC(=O)NC(Cc1c[nH]c2ccccc12)C(=O)O (racemic) | 204 to 206
COc1ccc(C(=O)OC(COc2ccc(C=CC(=O)c3ccccc3)cc2)COc2ccc(C(=O)C=Cc3ccccc3)cc2)cc1 (stereo not given) | 74
CNC(=O)C(C)SCCSP(=O)(OC)OC (stereo not given) | 43
NCC(=O)NO | 156
Cc1cc(C)c([N+](=O)[O-])c(C)c1Br | 64 to 66
Oc1c(F)c(F)c2c(F)c(F)c(F)c(F)c2c1F | 120 to 124
O=C1CC(c2ccccc2)Oc2cc(O)ccc21 (stereo not given) | 188
COc1ccc(C(N)=S)cc1[N+](=O)[O-] | 191 to 192
C[C@@H](OC(C)(C)C)[C@H](NC(=O)OCC1c2ccccc2-c2ccccc21)C(=O)O | 131 to 134
CON(C)C(=O)Nc1ccc(Oc2ccc3c(c2)OC(C)(OC)CC3(C)C)cc1 (stereo not given) | 102
ClCc1cc(Cl)cc(Cl)c1 | 36
NNC(=S)Nc1ccc(C(F)(F)F)cc1 | 167
COC(=O)c1cc(Br)cc(Br)c1 | 63
CNC(=O)c1cccnc1 | 104
O=Cc1ccc(F)c(Br)c1 | 31
O=Cc1cc(O)ccc1[N+](=O)[O-] | 167
CC12CCCC1C1CCC(CC(=O)O)C(C)(CC(=O)O)C1CC2 (stereo not given) | 229
COc1ccc(-c2cc(=O)c3c(O)cc(O)cc3o2)cc1 | 263
CCCCCc1ccc(O)cc1O | 72.5

Compound | melting point [°C]
BrCC1CO1 (stereo not given) | -40
Cc1ccccc1/N=N/c1c(C)[nH]c(=S)c(C#N)c1C | 178
O=C(c1ccccc1)c1cccc(O)c1 | 117 to 119
COC(=O)c1cc(C(C)=O)ccc1O | 60 to 61
Nc1ccc(S(=O)(=O)NCCO)cc1 | 97 to 99
O=C(Cl)c1cc2cc(Br)ccc2o1 | 106 to 107
FC(F)(F)C(F)(F)C(F)(F)c1cc(-c2ccccc2)[nH]n1 | 85
c1ccc(N(c2ccccc2)c2ccccc2)cc1 | 127
CC1=C(C(N)=O)C(c2ccccc2)NC(=O)N1 (stereo not given) | 260 to 262
NC(=O)C1CCN(C(=O)OCc2ccccc2)CC1 | 130 to 132
CCCCCCC(O)CCCCCCCCCCC(=O)O (stereo not given) | 77.8
O=C(O)c1cccc(-c2ccncc2)c1 | 268
Fc1ccc(C2(Cn3cncn3)OC2c2ccccc2Cl)cc1 (stereo not given) | 137
O=C(C1=NOC2C(=O)N(c3ccc(Cl)cc3)C(=O)C12)c1ccc2ccccc2c1 (stereo not given) | 121
O=Cc1ccc(O)c(Cl)c1 | 139
CC(O)C#N (stereo not given) | -40
Clc1ncnc2c1cnn2-c1ccccc1 | 126 to 128
COC(=O)c1sccc1S(=O)(=O)NC(=O)Nc1nc(C)nc(OC)n1 | 176
Cc1cccc2c1C(=O)NC2=O | 183 to 189
Cc1c(C(=O)CBr)sc2ccccc12 | 98 to 99
O=[N+]([O-])c1cc(C(F)(F)F)ccc1N1CCCC1 | 54 to 56
CC(C)(C)c1cc(C(=O)NN)[nH]n1 | 177 to 181
Cc1cc(C)c(OC(=O)C(F)(F)F)cc1OC(=O)C(F)(F)F | 121

Compound | melting point [°C]
CC(C)(C)C(C)(C)Cl | 136
Cc1cc(N)c(N)cc1Cl | 137 to 140
CS(=O)(=O)c1ccc(Cl)cc1 | 97
COC(=O)c1sccc1N1C(=O)C=CC1=O | 130 to 131
Cc1ccc(C)c2c1C(=O)c1ccccc1C2=O | 140
CC(C)(C)c1ccc(C(C)(C)C)cc1 | 79.5
CC(C)(C)C(N)P(=O)(O)O (stereo not given) | 245 to 252
Cc1ccc(-c2csc(/C(C#N)=N\Nc3ccc(O)cc3)n2)cc1 | 252
O=C(Cc1ccccc1)SSC(=O)Cc1ccccc1 | 59
CC(C)=NN=C(C)C | -12.5
CC12CCC(CC/C1=N\O)C2(C)C (stereo not given) | 164
O=S(=O)(c1ccccc1)C1CC1(Cl)Cl (stereo not given) | 83 to 88
O=C1C(Cl)C(CCl)CN1c1cccc(C(F)(F)F)c1 (stereo not given) | 67.7
CCOCCOCCOC(C)=O | -25
Cc1cc(CCl)c(C)cc1CCl | 132
Cc1cccnc1C(=O)O | 119
Cn1ccc2c1CC(C)(C)CC2=O | 109
O=C1C(=Cc2ccc(-c3ccc(Cl)cc3)o2)CCC1=Cc1ccc(-c2ccc(Cl)cc2)o1 | 264 to 266
O=C1C[C@@H](C(=O)O)c2ccccc21 | 113
COC(=O)c1ccc(OC)c([N+](=O)[O-])c1 | 111
CC(C(=O)O)c1cccc(C(=O)c2ccccc2)c1 (stereo not given) | 94
CSC(=Nc1nccs1)SC | 194 to 195
FC(F)(Cl)C(F)(Cl)C(F)(F)Cl | -72

Compound | melting point [°C]
CC(C)(C)OC(=O)n1cccc1C=O | 51
BrC(=C(c1ccccc1)c1ccccc1)c1ccccc1 | 115 to 117
CC1(C)C2CC[C@]1(CS(=O)(=O)O)C(=O)C2 | 200
CC12CCC(O)CC1CCC1C2C(=O)CC2(C)C1CCC2(O)C(=O)CO (stereo not given) | 213
O=S(=O)(CF)c1ccccc1 | 53
O=C1c2ccc(C=NO)cc2C(=O)c2c(Cl)c(Cl)c(Cl)c(Cl)c21 | 234 to 235
CC1(C)OC2C(CO)OC(n3ccc(=O)[nH]c3=O)C2O1 (stereo not given) | 163 to 166
CCOC(=O)C1(S(=O)(=O)c2ccc(C)cc2)CC1 | 75.5
COc1c(Cl)c(C)c2c(c1Cl)OC(=O)c1c(C)c(Cl)c(O)c(Cl)c1O2 | 232
N[C@@H](Cc1ccccc1)C(=O)O | 270 to 275
O=C(c1noc(-c2ccc([N+](=O)[O-])cc2)c1S(=O)(=O)c1ccccc1)c1cccc2ccccc12 | 160
O=Cc1ccc(C(=O)O)s1 | 169
N#CCc1ccc(-c2ccccc2)cc1 | 95
Cc1csc(C(=O)O)c1 | 124 to 125
CN(C)c1ccc(/C=C2\C(=O)C3CCC(C)(C2=O)C3(C)C)cc1 (stereo not given) | 152 to 153
CNc1ccc(N)c2c1C(=O)c1ccccc1C2=O | 193
O=c1oc2ccccc2cc1O | 154
O=[N+]([O-])c1ccc(Br)cc1C(F)(F)F | 34
Cc1cc(S(N)(=O)=O)ccc1Br | 151
N#Cc1cc(I)c(O)c([N+](=O)[O-])c1 | 138
CCC(=O)C(C)(C)C | -45
